Measured values as given in patent US12234227B2, “Pyrazole derivatives as H4 antagonist compounds” (NXERA PHARMA UK LIMITED, priority 2018, dated 2025).
Counter-ions that a name gives are not always drawn. Like-named read-outs stand apart in the source and are kept apart here.

Tests used:
human H4 receptor [1] = molecular target: T1, human H4 receptor (Homo sapiens, UniProt Q9H3N8); assay: H4 Antagonist Functional cAMP Gi Assay; type: cell-based; conditions: H4 antagonist activity; for Kb: read-out: Human H4 CAMP fpKb (converted)
T1 construct: expressed in transfected cells; host or cells: HEKf cells transduced with baculovirus
Protocol: H4 Antagonist Functional cAMP Gi Assay
HEKf cells were infected overnight using baculovirus expressing the human H4 receptor, then centrifuged at 1,200 rpm for 5 min, frozen in cell freezing medium (Sigma) and stored at −150° C. On the day of assay, the cells were thawed and resuspended in HBSS with 500 nM IBMX to achieve a density of 1,500 cells/well. H4 ligands were prepared in DMSO and stamped by LabCyte ECHO acoustic dispensing at 25 nL in low volume plates. 10 μL/well cells were plated in the presence of 1 μM forskolin, subjected to centrifugation at 1,200 rpm for 1 min and incubated for 30 min prior to addition of Cisbio cAMP detection reagents to a total volume 20 μL/well. For the antagonist assay, cells were pre-incubated with H4 antagonist ligands for 30 min prior to addition of EC80 concentration of histamine and a further 30 min incubation. Following detection reagent addition and shaking at room temperature for 60 min, cAMP accumulation was measured using HTRF on a PheraStar plate reader. EC50 values were generated using a 4-parameter logistical fit equation to quantify agonist potencies. Functional antagonist affinity values were generated using the Cheng-Prusoff equation to calculate a pKb value using the antagonist assay data.

human H4 receptor [2] = molecular target: T1, human H4 receptor; assay: H4 Antagonist Functional Dynamic Mass Redistribution Assay; type: cell-based; conditions: H4 antagonist activity; for Kb: read-out: Human H4 DMR fpKb (converted)
Protocol: H4 Antagonist Functional Dynamic Mass Redistribution Assay
HEKf cells were infected using baculovirus expressing the human H4 receptor, plated into fibronectin-coated EPIC plates at a density of 10,000 cells/well and incubated overnight at 37° C. The medium on cells was changed to 30 μL HBSS with 20 mM HEPES per well and 30 nL DMSO were added per well by LabCyte ECHO acoustic dispensing. Following 2 h equilibration at room temperature, 30 nL of H4 ligands prepared in DMSO were stamped by LabCyte ECHO acoustic dispensing into seeded EPIC plates and cellular dynamic mass redistribution was monitored using a Corning EPIC plate reader. Following 45 min measurement, 30 nL/well of histamine EC80 was added and monitored to obtain antagonist assay data. Maximum baseline-corrected responses in […] were used to generate concentration response curves. EC50 values were generated using a 4-parameter logistical fit equation to quantify agonist potencies. Functional antagonist affinity values were generated using the Cheng-Prusoff equation to calculate a pKb value using the antagonist assay data.

hERG [3] = molecular target: T2, hERG (Homo sapiens, UniProt Q12809); assay: hERG Assay (QPatch automated patch clamp; single-concentration assay at 30 μM and pIC50 assay)
hERG [4] = molecular target: T2, hERG; assay: in vitro
[5] = human, CHO cells stably expressing hERG

T2 sequence (Q12809 whole entry): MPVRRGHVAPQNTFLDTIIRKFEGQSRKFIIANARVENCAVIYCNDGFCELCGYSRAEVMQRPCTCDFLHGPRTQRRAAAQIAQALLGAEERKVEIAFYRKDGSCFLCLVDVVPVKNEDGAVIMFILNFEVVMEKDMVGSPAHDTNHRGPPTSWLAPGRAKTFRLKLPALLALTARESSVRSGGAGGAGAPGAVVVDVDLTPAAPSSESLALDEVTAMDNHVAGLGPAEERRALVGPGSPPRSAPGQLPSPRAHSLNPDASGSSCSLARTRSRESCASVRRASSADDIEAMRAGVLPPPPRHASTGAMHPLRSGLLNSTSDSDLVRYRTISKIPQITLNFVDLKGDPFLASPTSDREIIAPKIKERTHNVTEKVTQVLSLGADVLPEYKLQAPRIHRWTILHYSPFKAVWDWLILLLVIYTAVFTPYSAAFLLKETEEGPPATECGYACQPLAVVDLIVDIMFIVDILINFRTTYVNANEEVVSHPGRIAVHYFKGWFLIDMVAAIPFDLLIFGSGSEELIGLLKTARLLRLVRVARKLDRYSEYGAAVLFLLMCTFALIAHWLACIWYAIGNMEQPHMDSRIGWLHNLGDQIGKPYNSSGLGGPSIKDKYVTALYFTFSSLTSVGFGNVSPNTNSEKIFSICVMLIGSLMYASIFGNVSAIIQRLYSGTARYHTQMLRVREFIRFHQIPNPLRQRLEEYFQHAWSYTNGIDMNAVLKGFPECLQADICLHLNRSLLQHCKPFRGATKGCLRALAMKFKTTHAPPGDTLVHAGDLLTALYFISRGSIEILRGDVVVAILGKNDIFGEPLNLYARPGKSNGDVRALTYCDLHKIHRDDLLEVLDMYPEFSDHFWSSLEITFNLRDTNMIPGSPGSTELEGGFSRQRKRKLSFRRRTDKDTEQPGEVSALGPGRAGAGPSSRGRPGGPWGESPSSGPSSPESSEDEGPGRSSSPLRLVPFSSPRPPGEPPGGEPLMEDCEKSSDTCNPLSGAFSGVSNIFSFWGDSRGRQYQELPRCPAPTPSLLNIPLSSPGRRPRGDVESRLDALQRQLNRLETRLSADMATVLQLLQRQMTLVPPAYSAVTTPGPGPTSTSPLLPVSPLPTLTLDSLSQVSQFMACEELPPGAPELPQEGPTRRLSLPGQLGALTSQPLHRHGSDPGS

SMILES	Kb (human H4 receptor [1])	Kb (human H4 receptor [2])	inhibition at 30 µM (hERG [3]; [5])	also measured
CN[C@@H]1CCN(c2cc(-c3cn[nH]c3C)nc(N)n2)C1 [Example 9-1]	0.00794 µM	0.00398 µM		IC50 (hERG [3]): ≥ 100 µM
CN[C@@H]1CCN(c2cc(-c3cn[nH]c3C(C)C)nc(N)n2)C1 [Example 9-3]	0.0158 µM	0.0158 µM	24%	
Cc1[nH]ncc1-c1cc(N2CC[C@@H](N)C2)nc(N)n1 [Example 9-7]	0.0158 µM	0.01 µM	12%	
CN[C@@H]1CCN(c2cc(-c3c(C)n[nH]c3C)nc(N)n2)C1 [Example 10-1]	0.0501 µM	0.0398 µM	21%	
CN[C@@H]1CCN(c2cc(-c3c(C)nn(C)c3C)nc(N)n2)C1 [Example 13-1]	0.02 µM	0.00501 µM	7%	
Cc1n[nH]c(-c2cc(N3C[C@H]4CCCN[C@H]4C3)nc(N)n2)c1Cl [Example 17-7, dihydrochloride]		0.0316 µM		inhibition at 30 µM (hERG [4]): 38%
CC(C)c1cc(N2CC[C@@H](N)C2)nc(N)n1 [JNJ-39758979]				Human H4 CAMP fpKb (human H4 receptor [1]): 8.1; Human H4 DMR fpKb (human H4 receptor [2]): 8.5; hERG pIC50 (hERG [3]; QPatch, 1, 3, 10 and 30 μM): ≤4.0

Continued, in another order:

Kb (human H4 receptor [1])	Kb (human H4 receptor [2])	SMILES	inhibition at 30 µM (hERG [3]; [5])	also measured
0.00316 µM	0.00398 µM	CN[C@@H]1CCN(c2cc(-c3cnn(C(F)(F)F)c3)nc(N)n2)C1 [Example 8-7, dihydrochloride]	49%	IC50 (hERG [3]; [5]): 31.6 µM
0.126 µM	0.126 µM	CN[C@@H]1CCN(c2cc(-c3cnn(CCOC)c3)nc(N)n2)C1 [Example 8-10]		IC50 (hERG [3]): ≥ 100 µM
0.000794 µM	0.00158 µM	CNC1CN(c2cc(-c3cnn(C(F)(F)F)c3)nc(N)n2)C1 [Example 8-16, ditrifluoroacetate]	33%	IC50 (hERG [3]): > 100 µM
0.00631 µM	0.00251 µM	CN[C@@H]1CCN(c2cc(-c3cn[nH]c3C(F)(F)F)nc(N)n2)C1 [Example 9-6]	18%	
0.0126 µM	0.00251 µM	CN[C@@H]1CCN(c2cc(-c3cn(C)nc3C)nc(N)n2)C1 [Example 11-1, (R)-4-(1,3-dimethyl-1H-pyrazol-4-yl)-6-(3-(methylamino)pyrrolidin-1-yl)pyrimidin-2-amine]	2%	IC50 (hERG [3]): ≥ 100 µM
0.0794 µM	0.0794 µM	CCc1nn(C)cc1-c1cc(N2CC[C@@H](NC)C2)nc(N)n1 [Example 11-2, dihydrochloride]	20%	
0.00631 µM	0.00398 µM	CN[C@@H]1CCN(c2cc(-c3cn(C(F)F)nc3C)nc(N)n2)C1 [Example 11-6]	90%	
0.00794 µM	0.00251 µM	CN[C@@H]1CCN(c2cc(-c3cnn(C)c3C)nc(N)n2)C1 [Example 12-1]		IC50 (hERG [3]): ≥ 100 µM
0.0158 µM	0.00631 µM	CN[C@@H]1CCN(c2cc(-c3cnn(C(F)F)c3C)nc(N)n2)C1 [Example 12-3]	47%	
0.000398 µM	0.000126 µM	CN[C@@H]1CCN(c2cc(-c3[nH]ncc3Br)nc(N)n2)C1 [Example 16-12]	45%	
